# Test results from patent publication US20240209028A1, “CNP COMPOUNDS” (priority 2022, published 2024).
# Starred links: 1 amine or outer side, 2 acyl side, 3 side chain; linkers in the order of their positions; H or OH if unused. Positions of bridges follow the written chain, without caps; N, C: chain ends. Residues, ends and D or L forms follow the SMILES beside them. *: point of attachment. C18 diacid = O=C(O)CCCCCCCCCCCCCCCCC(=O)*; γGlu = O=C(O)[C@H](CCC(=O)[*:2])N[*:1]; AEEA = NCCOCCOCC(=O)O
# Tests used:
# [1] = PK of CNP compounds after i.v. and s.c. administration to rats; conditions: male, Sprague Dawley, in vivo, iv, rat, i.v., about 100 nmol/kg; for clearance: read-out: Cl (L/hr/kg), i.v. administration (converted); for half-life: read-out: T½ (hr), i.v. administration (converted)
# Outline: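 Male Sprague Dawley rats (n=4-6) were dosed at 300 nmol/kg s.c. or 100 nmol/kg i.v., formulated at pH 7.4 or 4.0, and sampled up to 72 h. Plasma levels were measured by TF-LC-MS against calibrators from 0.5 to 2000 nM. Non-compartmental PK used dose-normalized AUC for bioavailability, with values given as means.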
# [2] = Thioflavin T (ThT) assay: lagtime and peptide recovery; format: physicochemical; conditions: ThT assay, pH 6.5, 37° C.; assay terminated after 45 hours
# Outline: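 ThT (final about 1 μM) was added to peptide supernatants at pH 4.0 and 6.5 and incubated at 37 °C with orbital shaking for 45 h. Fluorescence (ex 444/em 485 nm) was read every 20 min, and lag-time was taken as the time to onset of signal rise. Recovery is the RP-UPLC (215 nm) total peak area after vs. before incubation.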
SMILES,clearance [1],half-life [1],LagTime (h) at pH 6.5 [2]
CC[C@H](C)[C@@H]1NC(=O)[C@H](CCCNC(=N)N)NC(=O)[C@H](CC(=O)O)NC(=O)[C@H](CC(C)C)NC(=O)[C@@H]2CCCN2C(=O)[C@H](CC(C)C)NC(=O)CNC(=O)[C@H](Cc2ccccc2)NC(=O)[C@@H](NC(=O)CNC(=O)[C@H](CO)NC(=O)[C@H](CO)NC(=O)[C@@H](NC(=O)CNC(=O)[C@@H](NC(=O)[C@H](CCCCN)NC(=O)[C@H](CCC(N)=O)NC(=O)[C@H](C)NC(=O)CNC(=O)[C@H](Cc2c[nH]cn2)NC(=O)[C@H](Cc2ccc(O)cc2)NC(=O)COCCOCCNC(=O)COCCOCCNC(=O)COCCOCCNC(=O)CC[C@H](NC(=O)CCCCCCCCCCCCCCCCC(=O)O)C(=O)O)[C@@H](C)O)C(C)C)CSSC[C@@H](C(=O)O)NC(=O)CNC(=O)[C@H](CC(C)C)NC(=O)CNC(=O)[C@H](CO)NC(=O)[C@H](CC(C)C)NC(=O)[C@H](CO)NC(=O)CNC1=O [compound 1352] ({C18 diacid-γGlu-AEEA-AEEA-AEEA}-YHGAQKTGVSSGCFGLPLDRIGSLSGLGC-OH; disulfide 13-29),0.0102 L/h/kg,6.34 h,23 h
CC[C@H](C)[C@@H]1NC(=O)[C@H](CCCNC(=N)N)NC(=O)[C@H](CC(=O)O)NC(=O)[C@H](CC(C)C)NC(=O)[C@@H]2CCCN2C(=O)[C@H](CC(C)C)NC(=O)CNC(=O)[C@H](Cc2ccccc2)NC(=O)[C@@H](NC(=O)CNC(=O)[C@H](CCCCN)NC(=O)[C@H](CO)NC(=O)[C@H](CC(C)C)NC(=O)CNC(=O)[C@H](CCCCN)NC(=O)[C@H](CCCCN)NC(=O)[C@H](CCC(N)=O)NC(=O)[C@H](C)NC(=O)CNC(=O)[C@H](CCC(=O)O)NC(=O)[C@H](Cc2ccc(O)cc2)NC(=O)COCCOCCNC(=O)COCCOCCNC(=O)COCCOCCNC(=O)COCCOCCNC(=O)CC[C@H](NC(=O)CCCCCCCCCCCCCCCCC(=O)O)C(=O)O)CSSC[C@@H](C(=O)O)NC(=O)CNC(=O)[C@H](CC(C)C)NC(=O)CNC(=O)[C@H](CO)NC(=O)[C@H](CC(C)C)NC(=O)[C@H](CO)NC(=O)CNC1=O [compound 1375] ({C18 diacid-γGlu-AEEA-AEEA-AEEA-AEEA}-YEGAQKKGLSKGCFGLPLDRIGSLSGLGC-OH; disulfide 13-29; C-terminus assumed),0.0057 L/h/kg,9.66 h,45 h
CC[C@H](C)[C@@H]1NC(=O)[C@H](CCCNC(=N)N)NC(=O)[C@H](CC(=O)O)NC(=O)[C@H](CC(C)C)NC(=O)[C@@H]2CCCN2C(=O)[C@H](CC(C)C)NC(=O)CNC(=O)[C@H](Cc2ccccc2)NC(=O)[C@@H](NC(=O)CNC(=O)[C@H](CO)NC(=O)[C@H](CO)NC(=O)[C@H](CC(C)C)NC(=O)CNC(=O)[C@H](CCCCN)NC(=O)[C@H](CCCCN)NC(=O)[C@H](CCC(N)=O)NC(=O)[C@H](C)NC(=O)CNC(=O)[C@H](CCC(=O)O)NC(=O)[C@H](Cc2ccc(O)cc2)NC(=O)CNC(=O)CNC(=O)CNC(=O)COCCOCCNC(=O)COCCOCCNC(=O)CC[C@H](NC(=O)CCCCCCCCCCCCCCCCC(=O)O)C(=O)O)CSSC[C@@H](C(=O)O)NC(=O)CNC(=O)[C@H](CC(C)C)NC(=O)CNC(=O)[C@H](CO)NC(=O)[C@H](CC(C)C)NC(=O)[C@H](CO)NC(=O)CNC1=O [compound 1378] ({C18 diacid-γGlu-AEEA-AEEA}-GGGYEGAQKKGLSSGCFGLPLDRIGSLSGLGC-OH; disulfide 16-32),0.00926 L/h/kg,5.29 h,2.5 h
